# Measured values taken from ChEMBL document CHEMBL3879881, “Substituted pyrazolyl compounds for the treatment of inflammation” (2005).
# Molecular target: T1, Inhibitor of nuclear factor kappa-B kinase subunit beta (Homo sapiens, UniProt O14920)
# T1 sequence (O14920 whole entry): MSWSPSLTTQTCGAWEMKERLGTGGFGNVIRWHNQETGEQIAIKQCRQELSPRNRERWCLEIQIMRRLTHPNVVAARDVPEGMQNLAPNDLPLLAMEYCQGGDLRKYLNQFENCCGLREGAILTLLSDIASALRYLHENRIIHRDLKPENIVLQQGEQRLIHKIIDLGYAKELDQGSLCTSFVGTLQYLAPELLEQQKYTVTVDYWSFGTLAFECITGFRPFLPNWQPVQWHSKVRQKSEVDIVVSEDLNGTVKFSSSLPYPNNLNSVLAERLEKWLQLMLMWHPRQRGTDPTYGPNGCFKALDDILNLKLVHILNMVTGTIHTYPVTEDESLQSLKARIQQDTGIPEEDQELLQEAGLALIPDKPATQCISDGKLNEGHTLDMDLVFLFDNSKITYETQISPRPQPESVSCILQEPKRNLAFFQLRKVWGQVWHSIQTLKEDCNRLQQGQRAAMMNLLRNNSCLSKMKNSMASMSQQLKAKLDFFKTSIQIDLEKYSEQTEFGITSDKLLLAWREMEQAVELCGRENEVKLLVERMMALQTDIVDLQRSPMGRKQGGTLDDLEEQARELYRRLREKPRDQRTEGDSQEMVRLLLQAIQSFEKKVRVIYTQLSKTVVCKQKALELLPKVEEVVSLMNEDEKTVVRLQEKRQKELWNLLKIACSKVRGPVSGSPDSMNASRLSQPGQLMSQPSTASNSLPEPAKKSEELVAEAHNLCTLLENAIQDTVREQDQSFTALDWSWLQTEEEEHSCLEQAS
# Test: Inhibition of human recombinant C-terminal FLAG-epitope-tagged IKK2 expressed in baculovirus using biotinylated IkappaBalpha peptide as substrate assessed as decrease in [gamma-33P]-ATP incorporation in substrate after 30 mins by scintillation counting method
row,SMILES,IC50
1,CCN1CCN(c2cc(C(=O)Nc3ccc4c(c3)-c3c(c(C(N)=O)nn3-c3ccc(F)cc3)CC4)c(Cl)cn2)CC1,≤ 1000 nM
2,CN1CCN(c2ncc(Cl)c(C(=O)Nc3ccc4c(c3)-c3c(c(C(N)=O)nn3-c3ccc(F)cc3)CC4)n2)CC1,≤ 1000 nM
3,C[C@@H]1CN(c2cc(C(=O)Nc3ccc4c(c3)-c3c(c(C(N)=O)nn3-c3ccc(F)cc3)CC4)c(Cl)cn2)C[C@H](C)N1C,≤ 1000 nM
4,C[C@@H]1CN(c2cc(C(=O)Nc3ccc4c(c3)-c3c(c(C(N)=O)nn3-c3ccc(F)cc3)CC4)c(Cl)cn2)C[C@H](C)N1,≤ 1000 nM
5,CN1CCN(c2ncc(Cl)c(C(=O)Nc3ccc4c(c3)-c3c(c(C(N)=O)nn3-c3ccc5c(c3)OCO5)CC4)n2)CC1,≤ 1000 nM
6,CS(=O)(=O)c1ncc(Cl)c(C(=O)Nc2ccc3c(c2)-c2c(c(C(N)=O)nn2-c2ccc4c(c2)OCO4)CC3)n1,≤ 1000 nM
7,NC(=O)c1nn(-c2ccncc2)c2c1CCc1ccc(NC(=O)c3cc(Cl)ncc3Cl)cc1-2,≤ 1000 nM
8,CN1CCN(c2cc(C(=O)Nc3ccc4c(c3)-c3c(c(C(N)=O)nn3-c3ccncc3)CC4)c(Cl)cn2)CC1,≤ 1000 nM
9,CC(C)N1CCN(c2cc(C(=O)Nc3ccc4c(c3)-c3c(c(C(N)=O)nn3-c3ccc(F)cc3)CC4)c(Cl)cn2)CC1,≤ 1000 nM
10,C[C@H]1CN(c2cc(C(=O)Nc3ccc4c(c3)-c3c(c(C(N)=O)nn3-c3ccc(F)cc3)CC4)c(Cl)cn2)CCN1C,≤ 1000 nM
11,C[C@@H]1CN(c2cc(C(=O)Nc3ccc4c(c3)-c3c(c(C(N)=O)nn3-c3ccc(F)cc3)CC4)c(Cl)cn2)CCN1C,≤ 1000 nM
12,C[C@H]1CN(c2cc(C(=O)Nc3ccc4c(c3)-c3c(c(C(N)=O)nn3-c3ccc(F)cc3)CC4)c(Cl)cn2)CCN1,≤ 1000 nM
